Test results as given in ChEMBL document CHEMBL1146387, “A new class of anti-MRSA and anti-VRE agents: preparation and antibacterial activities of indole-containing compounds” (2007).
Values after ≈ are worked out from the molar mass of the structure shown.

Key:
Assay type in all cases: functional
Enterococcus faecium [1] = test: Antibacterial activity against vancomycin-resistant Enterococcus faecium VRA
Staphylococcus aureus [2] = test: Antibacterial activity against methicillin-susceptible Staphylococcus aureus 209P
Staphylococcus aureus [3] = test: Antibacterial activity against methicillin-resistant Staphylococcus aureus MF535
Enterococcus faecium [4] = test: Antibacterial activity against Enterococcus faecium ATCC 19434

| Structure (SMILES) | MIC (Enterococcus faecium [1]) [µg/mL] | MIC (Staphylococcus aureus [2]) [µg/mL] | MIC (Staphylococcus aureus [3]) [µg/mL] | MIC (Enterococcus faecium [4]) [µg/mL] |
| --- | --- | --- | --- | --- |
| CC(=O)NCCc1c(C(c2cccc(Br)c2)c2c(O)c3ccccc3oc2=O)[nH]c2ccccc12 (configuration not stated) | > 128 | > 128 | > 128 | > 128 |
| O=C(OCCc1c(C(c2ccccc2)c2c(O)c3ccccc3oc2=O)[nH]c2ccccc12)c1ccccc1 (configuration not stated) | 16 (≈ 31 µM) | 8 (≈ 15.5 µM) | 8 (≈ 15.5 µM) | 16 (≈ 31 µM) |
| COc1ccccc1C(=O)OCCc1c(C(c2cccc(Br)c2)c2c(O)cc(C)oc2=O)[nH]c2ccccc12 (configuration not stated) | 64 (≈ 109 µM) | 32 (≈ 54.4 µM) | 64 (≈ 109 µM) | 64 (≈ 109 µM) |
| COc1ccc(C(c2[nH]c3ccccc3c2CCOC(=O)c2ccccc2)c2c(O)c3ccccc3oc2=O)cc1 (configuration not stated) | 16 (≈ 29.3 µM) | 8 (≈ 14.7 µM) | 8 (≈ 14.7 µM) | 16 (≈ 29.3 µM) |
| Cn1c(=O)c(C(c2ccc(C(F)(F)F)cc2)c2[nH]c3ccccc3c2CCNS(=O)(=O)c2ccccc2)c(O)c2ccccc21 (configuration not stated) | 2 (≈ 3.17 µM) | 1 (≈ 1.58 µM) | 1 (≈ 1.58 µM) | 4 (≈ 6.33 µM) |
| O=C(OCCc1c(C(c2ccc(OC(F)(F)F)cc2)c2c(O)c3ccccc3oc2=O)[nH]c2ccccc12)c1ccccc1 (configuration not stated) | 0.5 (≈ 0.834 µM) | 2 (≈ 3.34 µM) | 2 (≈ 3.34 µM) | 0.5 (≈ 0.834 µM) |
| COc1ccccc1C(=O)OCCc1c(C(c2cncc(Br)c2)c2c(O)c3ccccc3oc2=O)[nH]c2ccccc12 (configuration not stated) | 128 (≈ 205 µM) | 64 (≈ 102 µM) | 128 (≈ 205 µM) | 128 (≈ 205 µM) |
| CC(=O)NCCc1c(C(c2cccc(Br)c2)c2c(O)c3ccccc3n(C)c2=O)[nH]c2ccccc12 (configuration not stated) | > 128 | 32 (≈ 58.8 µM) | 32 (≈ 58.8 µM) | > 128 |
| COc1ccccc1C(=O)OCCc1c(C(c2cccc(Br)c2)c2c(O)c3ccccc3n(C)c2=O)[nH]c2ccccc12 (configuration not stated) | > 128 | > 128 | > 128 | > 128 |
| O=C(OCCc1c(C(c2cccc(C(F)(F)F)c2)c2c(O)c3ccccc3oc2=O)[nH]c2ccccc12)c1ccccc1 (configuration not stated) | 1 (≈ 1.71 µM) | 4 (≈ 6.85 µM) | 4 (≈ 6.85 µM) | 2 (≈ 3.43 µM) |
| CSc1ccc(C(c2[nH]c3ccccc3c2CCOC(=O)c2ccccc2)c2c(O)c3ccccc3oc2=O)cc1 (configuration not stated) | 4 (≈ 7.12 µM) | 4 (≈ 7.12 µM) | 8 (≈ 14.2 µM) | 4 (≈ 7.12 µM) |
| Cc1ccc(C(c2[nH]c3ccccc3c2CCOC(=O)c2ccccc2)c2c(O)c3ccccc3oc2=O)cc1 (configuration not stated) | 8 (≈ 15.1 µM) | 4 (≈ 7.55 µM) | 4 (≈ 7.55 µM) | 8 (≈ 15.1 µM) |
| Cn1c(=O)c(C(c2cccc(Br)c2)c2[nH]c3ccccc3c2CCOC(=O)c2ccccc2)c(O)c2ccccc21 (configuration not stated) | > 128 | 1 (≈ 1.65 µM) | 2 (≈ 3.29 µM) | > 128 |
| Cn1c(=O)c(C(c2cccc(Br)c2)c2[nH]c3ccccc3c2CCOC(=O)Cc2ccccc2)c(O)c2ccccc21 (configuration not stated) | > 128 | 64 (≈ 103 µM) | > 128 | > 128 |
| O=C(OCCc1c(C(c2cccc(F)c2)c2c(O)c3ccccc3oc2=O)[nH]c2ccccc12)c1ccccc1 (configuration not stated) | 8 (≈ 15 µM) | 4 (≈ 7.5 µM) | 8 (≈ 15 µM) | 8 (≈ 15 µM) |
| Cc1cccc(C(c2[nH]c3ccccc3c2CCOC(=O)c2ccccc2)c2c(O)c3ccccc3oc2=O)c1 (configuration not stated) | 4 (≈ 7.55 µM) | 8 (≈ 15.1 µM) | 8 (≈ 15.1 µM) | 8 (≈ 15.1 µM) |
| O=C(OCCc1c(C(c2ccc(Br)cc2)c2c(O)c3ccccc3oc2=O)[nH]c2ccccc12)c1ccccc1 (configuration not stated) | 2 (≈ 3.36 µM) | 2 (≈ 3.36 µM) | 2 (≈ 3.36 µM) | 2 (≈ 3.36 µM) |
| Cn1c(=O)c(C(c2ccc(C(F)(F)F)cc2)c2[nH]c3ccccc3c2CCOC(=O)c2ccccc2)c(O)c2ccccc21 (configuration not stated) | 8 (≈ 13.4 µM) | 0.5 (≈ 0.838 µM) | 1 (≈ 1.68 µM) | 8 (≈ 13.4 µM) |

| Structure (SMILES) | MIC (Enterococcus faecium [1]) [µg/mL] | MIC (Staphylococcus aureus [2]) [µg/mL] | MIC (Staphylococcus aureus [3]) [µg/mL] | MIC (Enterococcus faecium [4]) [µg/mL] |
| --- | --- | --- | --- | --- |
| Cn1c(=O)c(C(c2ccc(C(F)(F)F)cc2)c2[nH]c3ccccc3c2CCNC(=O)c2ccccc2)c(O)c2ccccc21 (configuration not stated) | 16 (≈ 26.9 µM) | 8 (≈ 13.4 µM) | 16 (≈ 26.9 µM) | 16 (≈ 26.9 µM) |
| Cn1c(=O)c(C(c2ccc(C(F)(F)F)cc2)c2[nH]c3ccccc3c2CCOC(=O)Cc2ccccc2)c(O)c2ccccc21 (configuration not stated) | > 128 | 1 (≈ 1.64 µM) | 1 (≈ 1.64 µM) | > 128 |
| Cn1c(=O)c(C(c2ccc(C(F)(F)F)cc2)c2[nH]c3ccccc3c2CCOC(=O)C2CCCCC2)c(O)c2ccccc21 (configuration not stated) | 1 (≈ 1.66 µM) | 1 (≈ 1.66 µM) | 1 (≈ 1.66 µM) | 2 (≈ 3.32 µM) |
| CN(C(=O)NCCc1c(C(c2ccc(C(F)(F)F)cc2)c2c(O)c3ccccc3n(C)c2=O)[nH]c2ccccc12)c1ccccc1 (configuration not stated) | 1 (≈ 1.6 µM) | 1 (≈ 1.6 µM) | 1 (≈ 1.6 µM) | 2 (≈ 3.2 µM) |
| Cn1c(=O)c(C(c2ccc(OC(F)(F)F)cc2)c2[nH]c3ccccc3c2CCOC(=O)c2ccccc2)c(O)c2ccccc21 (configuration not stated) | > 128 | 0.5 (≈ 0.816 µM) | 1 (≈ 1.63 µM) | > 128 |
| Cn1c(=O)c(C(c2ccc(OC(F)(F)F)cc2)c2[nH]c3ccccc3c2CCOC(=O)Cc2ccccc2)c(O)c2ccccc21 (configuration not stated) | 2 (≈ 3.19 µM) | 1 (≈ 1.6 µM) | 1 (≈ 1.6 µM) | 32 (≈ 51.1 µM) |
| Cn1c(=O)c(C(c2ccc(OC(F)(F)F)cc2)c2[nH]c3ccccc3c2CCOC(=O)C2CCCCC2)c(O)c2ccccc21 (configuration not stated) | 2 (≈ 3.23 µM) | 1 (≈ 1.62 µM) | 1 (≈ 1.62 µM) | 2 (≈ 3.23 µM) |
| O=C(OCCc1c(C(c2ccc(OC(F)(F)F)cc2)c2c(O)c3cc(Cl)ccc3oc2=O)[nH]c2ccccc12)c1ccccc1 (configuration not stated) | 1 (≈ 1.58 µM) | 2 (≈ 3.15 µM) | 2 (≈ 3.15 µM) | 1 (≈ 1.58 µM) |
| O=C(OCCc1c(C(c2ccc(C(F)(F)F)cc2)c2c(O)c3ccccc3oc2=O)[nH]c2ccccc12)c1ccccc1 (configuration not stated) | 2 (≈ 3.43 µM) | 2 (≈ 3.43 µM) | 2 (≈ 3.43 µM) | 2 (≈ 3.43 µM) |
| COc1ccccc1C(=O)OCCc1c(C(c2cccc(Br)c2)c2c(O)c3ccccc3oc2=O)[nH]c2ccccc12 (configuration not stated) | 8 (≈ 12.8 µM) | 4 (≈ 6.41 µM) | 8 (≈ 12.8 µM) | 8 (≈ 12.8 µM) |
| COc1ccccc1C(=O)NCCc1c(C(c2cccc(Br)c2)c2c(O)c3ccccc3oc2=O)[nH]c2ccccc12 (configuration not stated) | 32 (≈ 51.3 µM) | 8 (≈ 12.8 µM) | 16 (≈ 25.7 µM) | 32 (≈ 51.3 µM) |
| O=C(OCCc1c(C(c2cccc(Br)c2)c2c(O)c3ccccc3oc2=O)[nH]c2ccccc12)c1ccccc1 (configuration not stated) | 4 (≈ 6.73 µM) | 4 (≈ 6.73 µM) | 4 (≈ 6.73 µM) | 4 (≈ 6.73 µM) |
| CC(=O)OCCc1c(C(c2cccc(Br)c2)c2c(O)c3ccccc3n(C)c2=O)[nH]c2ccccc12 (configuration not stated) | 32 (≈ 58.7 µM) | 16 (≈ 29.3 µM) | 16 (≈ 29.3 µM) | 64 (≈ 117 µM) |
| Cn1c(=O)c(C(c2ccc(OC(F)(F)F)cc2)c2[nH]c3ccccc3c2CCNC(=O)c2ccccc2)c(O)c2ccccc21 (configuration not stated) | > 128 | 8 (≈ 13.1 µM) | 128 (≈ 209 µM) | > 128 |
| CC(=O)OCCc1c(C(c2cccc(Br)c2)c2c(O)c3ccccc3oc2=O)[nH]c2ccccc12 (configuration not stated) | 32 (≈ 60.1 µM) | 32 (≈ 60.1 µM) | 32 (≈ 60.1 µM) | 64 (≈ 120 µM) |
| CC(=O)NC[C@H]1CN(c2ccc(N3CCOCC3)c(F)c2)C(=O)O1 [LINEZOLID] | 2 (≈ 5.93 µM) | 1 (≈ 2.96 µM) | 1 (≈ 2.96 µM) | 2 (≈ 5.93 µM) |
| CN[C@H](CC(C)C)C(=O)N[C@H]1C(=O)N[C@@H](CC(N)=O)C(=O)N[C@H]2C(=O)N[C@H]3C(=O)N[C@H](C(=O)N[C@H](C(=O)O)c4cc(O)cc(O)c4-c4cc3ccc4O)[C@H](O)c3ccc(c(Cl)c3)Oc3cc2cc(c3O[C@@H]2O[C@H](CO)[C@@H](O)[C@H](O)[C@H]2O[C@H]2C[C@](C)(N)[C@H](O)[C@H](C)O2)Oc2ccc(cc2Cl)[C@H]1O [VANCOMYCIN] | > 128 |  |  |  |
